Assays:
[1] = biological target: T1, ATP-dependent translocase ABCB1 (Homo sapiens, UniProt P08183); assay: TP_TRANSPORTER: inhibition of Daunorubicin efflux (Daunorubicin: 5 uM, Tween 80: 0.01 %(v/v)) in EHR2/DNR+ cells; assay type: functional, cell-based; details: mouse
[2] = biological target: T1, ATP-dependent translocase ABCB1; assay: TP_TRANSPORTER: inhibition of Daunorubicin efflux (Daunorubicin: 5 uM, Cremophor EL: 0.01 %(v/v)) in EHR2/DNR+ cells; assay type: functional, cell-based; details: mouse

T1 sequence (P08183 whole entry): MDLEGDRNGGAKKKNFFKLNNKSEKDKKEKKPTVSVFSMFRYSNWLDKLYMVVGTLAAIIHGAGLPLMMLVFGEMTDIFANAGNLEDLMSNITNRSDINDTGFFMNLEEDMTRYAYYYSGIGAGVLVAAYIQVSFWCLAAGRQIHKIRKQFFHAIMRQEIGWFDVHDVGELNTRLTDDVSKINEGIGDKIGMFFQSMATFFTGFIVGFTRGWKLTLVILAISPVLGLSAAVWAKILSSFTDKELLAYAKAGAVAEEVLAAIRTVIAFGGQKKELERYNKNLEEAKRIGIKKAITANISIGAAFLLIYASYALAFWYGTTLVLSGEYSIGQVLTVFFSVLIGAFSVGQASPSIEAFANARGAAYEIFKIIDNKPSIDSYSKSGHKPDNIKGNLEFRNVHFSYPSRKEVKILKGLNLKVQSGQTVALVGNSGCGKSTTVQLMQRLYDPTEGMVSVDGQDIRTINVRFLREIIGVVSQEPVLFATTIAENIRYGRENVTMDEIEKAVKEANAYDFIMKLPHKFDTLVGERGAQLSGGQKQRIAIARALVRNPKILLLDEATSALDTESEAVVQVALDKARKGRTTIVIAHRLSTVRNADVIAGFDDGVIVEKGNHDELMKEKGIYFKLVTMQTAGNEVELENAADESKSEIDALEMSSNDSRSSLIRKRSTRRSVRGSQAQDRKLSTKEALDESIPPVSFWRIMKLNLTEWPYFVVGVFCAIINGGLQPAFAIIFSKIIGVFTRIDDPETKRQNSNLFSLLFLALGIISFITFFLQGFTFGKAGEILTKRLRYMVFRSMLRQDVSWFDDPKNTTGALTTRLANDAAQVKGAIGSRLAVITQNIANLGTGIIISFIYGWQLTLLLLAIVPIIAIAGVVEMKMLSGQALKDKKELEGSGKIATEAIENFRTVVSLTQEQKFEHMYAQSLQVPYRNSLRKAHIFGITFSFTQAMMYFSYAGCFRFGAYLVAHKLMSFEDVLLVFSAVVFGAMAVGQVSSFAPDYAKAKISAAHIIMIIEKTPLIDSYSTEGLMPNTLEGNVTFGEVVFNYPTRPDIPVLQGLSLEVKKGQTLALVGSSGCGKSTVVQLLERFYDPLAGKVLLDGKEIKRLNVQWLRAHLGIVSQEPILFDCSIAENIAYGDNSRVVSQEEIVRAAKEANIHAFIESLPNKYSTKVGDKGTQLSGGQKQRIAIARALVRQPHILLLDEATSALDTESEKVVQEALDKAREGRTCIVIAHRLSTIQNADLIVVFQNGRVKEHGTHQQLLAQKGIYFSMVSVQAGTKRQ

| Activity [1] | Activity [2] | Compound |
| --- | --- | --- |
| inhibitor [+] | – | CCCCCCCC/C=C\CCCCCCCC(=O)OCCOCC(OCCO)C1OCC(OCCO)C1OCCO (configuration not stated) [TWEEN 80] |
| – | inhibitor [+] | CREMOPHOR EL |

Source: ChEMBL document CHEMBL2074403, “The solvents cremophor EL and Tween 80 modulate daunorubicin resistance in the multidrug resistant Ehrlich ascites tumor” (Cancer Commun, 1990)
